Laboratory results: ChEMBL document CHEMBL3352405, “Design and synthesis of sulfamoyl benzoic acid analogues with subnanomolar agonist activity specific to the LPA2 receptor” (J Med Chem, 2014)

Key:
[1] = molecular target: T1, Lysophosphatidic acid receptor 2 (Homo sapiens, UniProt Q9HBW0); assay: Agonist activity at human LPA2 expressed in LPA1xLPA2 double knockout mouse MEF cells by Fura-2AM dye based Ca2+ mobilization assay; type: functional, cell-based
[2] = molecular target: T1, Lysophosphatidic acid receptor 2; assay: Agonist activity at human LPA2 expressed in LPA1xLPA2 double knockout mouse MEF cells by Fura-2AM dye based Ca2+ mobilization assay relative to LPA 18:1; type: functional, cell-based
[3] = molecular target: Lysophosphatidic acid receptor 1 (Homo sapiens, UniProt Q92633); assay: Agonist activity at human LPA1 expressed in RH7777 cells up to 10 uM by Fura-2AM dye based Ca2+ mobilization assay
Lysophosphatidic acid receptor 1, sequence (Q92633 whole entry): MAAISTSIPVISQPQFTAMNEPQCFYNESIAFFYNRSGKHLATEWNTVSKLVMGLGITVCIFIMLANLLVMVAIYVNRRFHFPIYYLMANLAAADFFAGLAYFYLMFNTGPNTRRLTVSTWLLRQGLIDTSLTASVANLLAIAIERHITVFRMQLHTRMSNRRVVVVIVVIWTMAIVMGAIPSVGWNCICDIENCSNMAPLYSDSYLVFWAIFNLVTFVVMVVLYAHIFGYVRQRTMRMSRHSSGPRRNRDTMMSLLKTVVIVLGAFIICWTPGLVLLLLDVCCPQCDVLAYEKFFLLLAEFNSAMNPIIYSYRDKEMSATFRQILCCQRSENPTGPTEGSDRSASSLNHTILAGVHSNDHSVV

[4] = molecular target: T2, Lysophosphatidic acid receptor 3 (Homo sapiens, UniProt Q9UBY5); assay: Antagonist activity at human LPA3 expressed in RH7777 cells assessed as reduction in […]-induced calcium mobilization by Fura-2AM dye based Ca2+ mobilization assay
T2 sequence (Q9UBY5 whole entry): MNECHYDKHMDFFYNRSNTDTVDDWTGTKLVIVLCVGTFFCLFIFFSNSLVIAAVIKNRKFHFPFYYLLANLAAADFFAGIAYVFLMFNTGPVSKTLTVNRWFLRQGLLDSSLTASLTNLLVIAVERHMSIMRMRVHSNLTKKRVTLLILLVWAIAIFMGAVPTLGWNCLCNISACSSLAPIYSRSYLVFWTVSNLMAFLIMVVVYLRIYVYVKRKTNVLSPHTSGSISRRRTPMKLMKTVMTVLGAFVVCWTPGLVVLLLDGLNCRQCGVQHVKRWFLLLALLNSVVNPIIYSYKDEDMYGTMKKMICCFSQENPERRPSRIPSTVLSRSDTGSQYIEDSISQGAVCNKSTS

T1 sequence (Q9HBW0 whole entry): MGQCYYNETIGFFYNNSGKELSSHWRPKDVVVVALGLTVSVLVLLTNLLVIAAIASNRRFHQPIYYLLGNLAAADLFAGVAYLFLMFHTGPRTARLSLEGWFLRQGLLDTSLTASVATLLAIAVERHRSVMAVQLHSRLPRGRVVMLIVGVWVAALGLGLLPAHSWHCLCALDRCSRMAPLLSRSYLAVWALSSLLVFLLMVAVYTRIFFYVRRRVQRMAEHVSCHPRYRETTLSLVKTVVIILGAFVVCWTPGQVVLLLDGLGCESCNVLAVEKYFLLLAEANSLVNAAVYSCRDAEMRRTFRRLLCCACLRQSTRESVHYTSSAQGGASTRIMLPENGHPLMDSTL

Row | EC50 [1] [µM] | Emax [2] [%] | EC50 [3] [µM] | IC50 [4] [µM] | Structure (SMILES)
1 | 2.16 | – | – | – | O=C(O)c1ccccc1S(=O)(=O)NCCCN1C(=O)c2cccc3cccc(c23)C1=O
2 | 1.42 | 100 | – | – | O=C(O)c1ccccc1S(=O)(=O)NCCCCCN1C(=O)c2cccc3cccc(c23)C1=O
3 | – | – | 0.35 | – | CCCCCCCC/C=C\CCCCCCCC(=O)OC[C@@H](O)COP(=O)(O)O [LYSOPHOSPHATIDIC ACID]
4 | 0.05 | 100 | – | – | O=C(O)c1ccc(Br)cc1S(=O)(=O)NCCCCN1C(=O)c2cccc3cccc(c23)C1=O
5 | 0.11 | 100 | – | – | O=C(O)c1ccccc1S(=O)(=O)NCCCCN1C(=O)c2cccc3cccc(c23)C1=O
6 | – | 75 | – | 6.6 | O=C(O)c1ccccc1SCCCN1C(=O)c2cccc3cccc(c23)C1=O
7 | – | 124 | – | – | O=C(O)c1cc(Cl)ccc1S(=O)(=O)NCCCCN1C(=O)c2cccc3cccc(c23)C1=O
8 | 0.00015 | 119 | – | – | O=C(O)c1cc(F)ccc1S(=O)(=O)NCCCCN1C(=O)c2cccc3cccc(c23)C1=O
9 | 0.06 | 104 | – | – | O=C(O)c1cc(Br)ccc1S(=O)(=O)NCCCCN1C(=O)c2cccc3cccc(c23)C1=O
10 | – | 100 | – | – | O=C(O)c1ccc2c(c1)S(=O)(=O)N(CCCCN1C(=O)c3cccc4cccc(c34)C1=O)C2=O
